How the values were obtained:
Type in all cases: in vivo
[1] = test system: Kochia (Kochia scoparia); experiment: Test A preemergence; settings: Bassia scoparia, pre-emergence, 240 h, 0 to 100 scale where 0 is no effect and 100 is complete control, read-out: Kochia plant response rating
Outline: (§1)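 Preemergence directed soil spray on seeded pots, or postemergence application to plants 2–10 cm, one- to two-leaf. Solvent mixture non-phytotoxic, with surfactant. Scored ~10 d later, visually, 0–100 vs untreated.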

[2] = test system: barnyardgrass (Echinochloa crus-galli); experiment: Test A preemergence; settings: Echinochloa crus-galli, pre-emergence, 240 h, 0 to 100 scale where 0 is no effect and 100 is complete control, read-out: Barnyardgrass plant response rating
Outline: as §1

[3] = test system: giant foxtail (Setaria faberii); experiment: Test A preemergence; settings: Setaria faberi, pre-emergence, 240 h, 0 to 100 scale where 0 is no effect and 100 is complete control, read-out: Foxtail, Giant plant response rating
Outline: as §1

[4] = test system: pigweed (Amaranthus retroflexus); experiment: Test A preemergence; settings: Amaranthus retroflexus, pre-emergence, 240 h, 0 to 100 scale where 0 is no effect and 100 is complete control, read-out: Pigweed plant response rating
[5] = test system: ragweed (common ragweed, Ambrosia elatior); experiment: Test A preemergence; settings: Ambrosia artemisiifolia, pre-emergence, 240 h, 0 to 100 scale where 0 is no effect and 100 is complete control, read-out: Ragweed plant response rating
Outline: as §1

[6] = test system: ryegrass, Italian (Italian ryegrass, Lolium multiflorum); experiment: Test A preemergence; settings: Lolium multiflorum, pre-emergence, 240 h, 0 to 100 scale where 0 is no effect and 100 is complete control, read-out: Ryegrass, Italian plant response rating
Outline: as §1

[7] = test system: Kochia (Kochia scoparia); experiment: Test A postemergence; settings: Bassia scoparia, post-emergence, 240 h
Outline: as §1

[8] = test system: barnyardgrass (Echinochloa crus-galli); experiment: Test A postemergence; settings: Echinochloa crus-galli, post-emergence, 240 h
Outline: as §1

[9] = test system: blackgrass (Alopecurus myosuroides); experiment: Test A postemergence; settings: Alopecurus myosuroides, post-emergence, 240 h
Outline: as §1

[10] = test system: corn (Zea mays); experiment: Test A postemergence; settings: Zea mays, post-emergence, 240 h
Outline: as §1

[11] = test system: giant foxtail (Setaria faberii); experiment: Test A postemergence; settings: Setaria faberi, post-emergence, 240 h
Outline: as §1

[12] = test system: pigweed (Amaranthus retroflexus); experiment: Test A postemergence; settings: Amaranthus retroflexus, post-emergence, 240 h
Outline: as §1

[13] = test system: ragweed (common ragweed, Ambrosia elatior); experiment: Test A postemergence; settings: Ambrosia artemisiifolia, post-emergence, 240 h
Outline: as §1

[14] = test system: ryegrass, Italian (Italian ryegrass, Lolium multiflorum); experiment: Test A postemergence; settings: Lolium multiflorum, post-emergence, 240 h
Outline: as §1

[15] = test system: wheat (Triticum aestivum); experiment: Test A postemergence; settings: Triticum aestivum, post-emergence, 240 h
Outline: as §1

[16] = test system: barnyardgrass (Echinochloa crus-galli); experiment: Test B flooded paddy test; settings: Echinochloa crus-galli, 250 g ai/ha, Flood; 0 to 100 scale where 0 is no effect and 100 is complete control; read-out: Barnyardgrass plant response rating
Outline: (§2)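 2-leaf plants; pots flooded 3 cm over soil; cpd added to paddy water; depth held; greenhouse 13–15 d; visual rating vs controls, 0 = no effect, 100 = complete control.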

[17] = test system: ducksalad (Heteranthera limosa); experiment: Test B flooded paddy test; settings: Heteranthera limosa, 250 g ai/ha, Flood; 0 to 100 scale where 0 is no effect and 100 is complete control; read-out: Ducksalad plant response rating
Outline: as §2

[18] = test system: rice (Oryra sativa); experiment: Test B flooded paddy test; settings: Oryza sativa, 250 g ai/ha, Flood; 0 to 100 scale where 0 is no effect and 100 is complete control; read-out: Rice plant response rating
Outline: as §2

[19] = test system: sedge, umbrella (small-flower umbrella sedge, Cyperus difformis); experiment: Test B flooded paddy test; settings: Cyperus difformis, 250 g ai/ha, Flood; 0 to 100 scale where 0 is no effect and 100 is complete control; read-out: Sedge, Umbrella plant response rating
Outline: as §2

[20] = 125 g ai/ha, preemergence, approx. 10 d

`CC(C)Oc1cc([C@H]2CN(C)C(=O)[C@@H]2C(=O)Nc2ccccc2F)ccc1F` [Compound 1074] was tested, and the pest or weed control at 31 g/ha ([1]; 31 g ai/ha, Preemergence) was 0%, the pest or weed control at 125 g/ha [1, 20] was 20% and the pest or weed control at 31 g/ha ([2]; 31 g ai/ha, Preemergence) was 90%. For the same compound, the pest or weed control at 125 g/ha [2, 20] was 100%, the pest or weed control at 31 g/ha ([3]; 31 g ai/ha, Preemergence) was 100% and the pest or weed control at 125 g/ha [3, 20] was 100%. For the same compound, the pest or weed control at 31 g/ha ([4]; 31 g ai/ha, Preemergence) was 0%, the pest or weed control at 125 g/ha [4, 20] was 20% and the pest or weed control at 31 g/ha ([5]; 31 g ai/ha, Preemergence) was 0%. For the same compound, the pest or weed control at 125 g/ha [5, 20] was 10%, the pest or weed control at 31 g/ha ([6]; 31 g ai/ha, Preemergence) was 0% and the pest or weed control at 125 g/ha [6, 20] was 50%. It also gave a pest or weed control at 125 g/ha ([7]; 125 g ai/ha, postemergence, visual injury on 0 to 100 scale (0 no effect, 100 complete control), approx. 10 d, read-out: Kochia plant response rating) of 20%, a pest or weed control at 31 g/ha ([7]; Postemergence, 31 g ai/ha, visual injury after approx. 10 d, 0 to 100 scale, 0 no effect, 100 complete control, read-out: Plant response rating, Kochia) of 0% and a pest or weed control at 125 g/ha ([8]; 125 g ai/ha, postemergence, visual injury on 0 to 100 scale (0 no effect, 100 complete control), approx. 10 d, read-out: Barnyardgrass plant response rating) of 90%. For the same compound, the pest or weed control at 31 g/ha ([8]; Postemergence, 31 g ai/ha, visual injury after approx. 10 d, 0 to 100 scale, 0 no effect, 100 complete control, read-out: Plant response rating, Barnyardgrass) was 80%, the pest or weed control at 125 g/ha ([9]; 125 g ai/ha, postemergence, visual injury on 0 to 100 scale (0 no effect, 100 complete control), approx. 10 d, read-out: Blackgrass plant response rating) was 50% and the pest or weed control at 31 g/ha ([9]; Postemergence, 31 g ai/ha, visual injury after approx. 10 d, 0 to 100 scale, 0 no effect, 100 complete control, read-out: Plant response rating, Blackgrass) was 20%. For the same compound, the plant injury at 125 g/ha ([10]; 125 g ai/ha, postemergence, visual injury on 0 to 100 scale (0 no effect, 100 complete control), approx. 10 d, read-out: Corn plant response rating) was 20%, the Corn plant response rating (crop injury, 0 = no effect, 100 = complete kill) at 31 g/ha ([10]; Postemergence, 31 g ai/ha, visual injury after approx. 10 d, 0 to 100 scale, 0 no effect, 100 complete control) was 0% and the pest or weed control at 125 g/ha ([11]; 125 g ai/ha, postemergence, visual injury on 0 to 100 scale (0 no effect, 100 complete control), approx. 10 d, read-out: Foxtail, Giant plant response rating) was 90%. The pest or weed control at 31 g/ha ([11]; Postemergence, 31 g ai/ha, visual injury after approx. 10 d, 0 to 100 scale, 0 no effect, 100 complete control, read-out: Plant response rating, Foxtail, Giant) was 70%, the pest or weed control at 125 g/ha ([12]; 125 g ai/ha, postemergence, visual injury on 0 to 100 scale (0 no effect, 100 complete control), approx. 10 d, read-out: Pigweed plant response rating) was 0% and the pest or weed control at 31 g/ha ([12]; Postemergence, 31 g ai/ha, visual injury after approx. 10 d, 0 to 100 scale, 0 no effect, 100 complete control, read-out: Plant response rating, Pigweed) was 0%. It also gave a pest or weed control at 125 g/ha ([13]; 125 g ai/ha, postemergence, visual injury on 0 to 100 scale (0 no effect, 100 complete control), approx. 10 d, read-out: Ragweed plant response rating) of 0%, a pest or weed control at 31 g/ha ([13]; Postemergence, 31 g ai/ha, visual injury after approx. 10 d, 0 to 100 scale, 0 no effect, 100 complete control, read-out: Plant response rating, Ragweed) of 0% and a pest or weed control at 125 g/ha ([14]; 125 g ai/ha, postemergence, visual injury on 0 to 100 scale (0 no effect, 100 complete control), approx. 10 d, read-out: Ryegrass, Italian plant response rating) of 30%. It also gave a pest or weed control at 31 g/ha ([14]; Postemergence, 31 g ai/ha, visual injury after approx. 10 d, 0 to 100 scale, 0 no effect, 100 complete control, read-out: Plant response rating, Ryegrass, Italian) of 20%, a plant injury at 125 g/ha ([15]; 125 g ai/ha, postemergence, visual injury on 0 to 100 scale (0 no effect, 100 complete control), approx. 10 d, read-out: Wheat plant response rating) of 40% and a plant injury at 31 g/ha ([15]; Postemergence, 31 g ai/ha, visual injury after approx. 10 d, 0 to 100 scale, 0 no effect, 100 complete control, read-out: Plant response rating, Wheat) of 0%. It also gave a pest or weed control at 250 g/ha [16] of 75%, a pest or weed control at 250 g/ha [17] of 100% and a pest or weed control at 250 g/ha [18] of 35%. It also gave a pest or weed control at 250 g/ha [19] of 0%.

— patent publication US12077503B2, “Substituted cyclic amides and their use as herbicides” (FMC CORPORATION, priority 2015, dated 2024)
